Assay results published in ChEMBL document CHEMBL1201862, “PubChem BioAssay data set” (2004).
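These data come from cells grown in 96-well plates and exposed to compound for 48 hours at five concentrations. GI50: concentration for 50% inhibition of growth.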 Activity calls are given as the source filed them. Rule as the data show it: active = GI50 up to about 1.1 µM and inactive = higher.

How the values were obtained:
Assay in all cases: NCI tumour cell line growth inhibition, 48 h
A498 = system: A498
A549 = system: A549
COLO 205 = system: COLO 205
EKVX = system: EKVX
HCT-116 = system: HCT-116
HOP-92 = system: HOP-92
HT-29 = system: HT-29
K562 = system: K562
NCI/ADR-RES = system: NCI/ADR-RES
OVCAR-3 = system: OVCAR-3
RPMI-8226 = system: RPMI-8226
RXF 393 = system: RXF 393
SF-268 = system: SF-268
SF-295 = system: SF-295
SK-MEL-5 = system: SK-MEL-5
SNB-19 = system: SNB-19
SR = system: SR
SW-620 = system: SW-620
SK-MEL-2 = system: SK-MEL-2
T47D = system: T47D

Measured: GI50

Cc1c(N=C(S)Nc2ccc(Cl)cc2)c(=O)n(-c2ccccc2)n1C
inactive: A498 > 100 µM | A549 > 100 µM | COLO 205 > 100 µM | EKVX > 100 µM | HCT-116 > 100 µM | HOP-92 > 100 µM | HT-29 > 100 µM | K562 > 100 µM | NCI/ADR-RES > 100 µM | OVCAR-3 > 100 µM | RPMI-8226 > 100 µM | RXF 393 > 100 µM | SF-268 > 100 µM | SF-295 > 100 µM | SK-MEL-5 > 100 µM | SNB-19 > 100 µM | SR > 100 µM | SW-620 > 100 µM

COc1cccc([C@@H]2CC(=O)c3cc4c(cc3N2)OCO4)c1
inactive: A498 > 100 µM | A549 > 100 µM | COLO 205 > 100 µM | EKVX > 100 µM | HCT-116 > 100 µM | HOP-92 > 100 µM | K562 98.4 µM | NCI/ADR-RES > 100 µM | OVCAR-3 > 100 µM | RPMI-8226 76.4 µM | RXF 393 > 100 µM | SF-268 > 100 µM | SF-295 > 100 µM | SK-MEL-2 > 100 µM | SK-MEL-5 96.8 µM | SNB-19 > 100 µM | SW-620 > 100 µM | T47D > 100 µM

CCOC(=O)/C(=C\c1ccc(C#N)cc1)C(C)=O
inactive: A498 13.3 µM | A549 60.8 µM | COLO 205 31.3 µM | EKVX 49.7 µM | HCT-116 23.3 µM | HOP-92 17.4 µM | HT-29 33.4 µM | K562 30.7 µM | NCI/ADR-RES 28.1 µM | OVCAR-3 36.6 µM | RPMI-8226 22 µM | RXF 393 15.3 µM | SF-268 25.2 µM | SF-295 34.5 µM | SK-MEL-2 15.2 µM | SK-MEL-5 21.5 µM | SNB-19 45.1 µM | SW-620 21.2 µM | T47D 21.4 µM

CC(=O)c1sc2c(c1O)c(=O)n(-c1ccccc1)c(=S)n2-c1ccccc1
inactive: A549 > 100 µM | COLO 205 > 100 µM | HOP-92 > 100 µM | HT-29 > 100 µM | K562 > 100 µM | OVCAR-3 > 100 µM | RPMI-8226 > 100 µM | RXF 393 > 100 µM | SF-268 > 100 µM | SF-295 > 100 µM | SK-MEL-2 > 100 µM | SK-MEL-5 > 100 µM | SNB-19 > 100 µM | SW-620 > 100 µM | T47D > 100 µM

CC1[C@@H](OCc2ccccc2)COC(=O)N1Cc1ccccc1 (stereo not given in full)
inactive: A549 85.9 µM | COLO 205 > 100 µM | EKVX 78.9 µM | HCT-116 > 100 µM | HOP-92 5.27 µM | HT-29 > 100 µM | K562 60 µM | NCI/ADR-RES 49.4 µM | OVCAR-3 > 100 µM | RPMI-8226 52.2 µM | SF-268 > 100 µM | SF-295 46.2 µM | SK-MEL-2 > 100 µM | SK-MEL-5 69.5 µM | SNB-19 > 100 µM | SR > 100 µM | SW-620 > 100 µM

O=C1OC(O)C(Oc2c(Cl)cccc2Cl)=C1Cl (stereo not given)
inactive: A498 22.2 µM | A549 17.2 µM | COLO 205 16.5 µM | EKVX 29.6 µM | HCT-116 14.8 µM | HOP-92 18 µM | HT-29 18.4 µM | K562 17.3 µM | OVCAR-3 13.5 µM | RPMI-8226 18.1 µM | RXF 393 11.3 µM | SF-268 16 µM | SF-295 17.5 µM | SK-MEL-2 15.3 µM | SK-MEL-5 14.2 µM | SNB-19 27.5 µM | SR 21.7 µM | SW-620 15.1 µM

CC(=O)OCCCCn1cc(Cn2ccc(=O)n(Cc3cn(CCCCOC(C)=O)nn3)c2=O)nn1
inactive: A498 > 100 µM | A549 > 100 µM | COLO 205 > 100 µM | EKVX > 100 µM | HCT-116 > 100 µM | HOP-92 > 100 µM | NCI/ADR-RES > 100 µM | OVCAR-3 > 100 µM | RPMI-8226 > 100 µM | RXF 393 > 100 µM | SF-268 > 100 µM | SF-295 > 100 µM | SK-MEL-2 > 100 µM | SK-MEL-5 > 100 µM | SNB-19 > 100 µM | SW-620 > 100 µM | T47D > 100 µM

O=C1CCCCC[C@]12SC[C@H]1CON=C12
inactive: A498 7.16 µM | A549 37.1 µM | COLO 205 29.2 µM | EKVX 31 µM | HCT-116 35.2 µM | HOP-92 12.9 µM | HT-29 38.3 µM | K562 42.6 µM | NCI/ADR-RES 25.9 µM | OVCAR-3 89.7 µM | RPMI-8226 27.2 µM | RXF 393 21.1 µM | SF-295 > 100 µM | SK-MEL-5 > 100 µM | SNB-19 > 100 µM | SR 9.42 µM | SW-620 50.8 µM

COC(=O)c1cc(-c2ccc(-c3ccc(O)cc3)cc2)cc(-c2ccc(-c3ccc(O)cc3)cc2)c1
inactive: A498 16.4 µM | A549 8.45 µM | COLO 205 12.6 µM | EKVX 11.9 µM | HCT-116 5.64 µM | HOP-92 6.62 µM | K562 4.51 µM | NCI/ADR-RES 11.7 µM | OVCAR-3 12 µM | RPMI-8226 10.7 µM | RXF 393 5.62 µM | SF-268 4.04 µM | SF-295 6.75 µM | SK-MEL-2 15.3 µM | SK-MEL-5 17 µM | SNB-19 15.5 µM | SW-620 7.11 µM | T47D 4.61 µM

CCOC(=O)c1c[nH]cc1-c1cn(S(=O)(=O)c2ccccc2)cc1C
inactive: A498 > 10 µM | A549 30.5 µM | COLO 205 20.1 µM | EKVX 14.6 µM | HCT-116 21.6 µM | HOP-92 26 µM | HT-29 21.2 µM | K562 19.1 µM | NCI/ADR-RES 22.2 µM | OVCAR-3 18.8 µM | RXF 393 47.1 µM | SF-268 25.9 µM | SF-295 33.7 µM | SK-MEL-2 32.2 µM | SK-MEL-5 > 10 µM | SNB-19 31.8 µM | SW-620 > 10 µM | T47D 18.2 µM

CSc1ncnc2c1ncn2CCC(=O)O
inactive: A498 > 100 µM | A549 > 100 µM | COLO 205 > 100 µM | EKVX > 100 µM | HCT-116 > 100 µM | HOP-92 > 100 µM | HT-29 > 100 µM | K562 > 100 µM | NCI/ADR-RES > 100 µM | OVCAR-3 > 100 µM | RPMI-8226 > 100 µM | RXF 393 > 100 µM | SF-268 > 100 µM | SF-295 > 100 µM | SK-MEL-5 > 100 µM | SNB-19 > 100 µM | SR > 100 µM | SW-620 > 100 µM

Cc1ccc(NC(=O)CC(=O)N2N=C(c3ccccc3)C(/N=N/c3ccc(S(=O)(=O)CCOS(=O)(=O)O)cc3)C2=O)cc1 (stereo not given)
inactive: A498 > 100 µM | A549 > 100 µM | COLO 205 > 100 µM | EKVX > 100 µM | HCT-116 57.9 µM | HOP-92 > 100 µM | HT-29 > 100 µM | K562 > 100 µM | NCI/ADR-RES > 100 µM | OVCAR-3 > 100 µM | RPMI-8226 > 100 µM | RXF 393 > 100 µM | SF-268 > 100 µM | SF-295 > 100 µM | SK-MEL-2 57.1 µM | SK-MEL-5 > 100 µM | SNB-19 > 100 µM | SR > 100 µM | SW-620 > 100 µM

CC(C(=O)c1ccccc1)C1(O)C(=O)Nc2ccccc21 (stereo not given)
inactive: A498 > 100 µM | A549 > 100 µM | COLO 205 > 100 µM | EKVX > 100 µM | HCT-116 > 100 µM | HOP-92 > 100 µM | HT-29 > 100 µM | K562 > 100 µM | OVCAR-3 > 100 µM | RPMI-8226 > 100 µM | RXF 393 > 100 µM | SF-268 > 100 µM | SF-295 > 100 µM | SK-MEL-2 > 100 µM | SK-MEL-5 > 100 µM | SNB-19 > 100 µM | SR > 100 µM | SW-620 > 100 µM

CN(c1ccc(Cl)cc1)S(=O)(=O)c1cccc([N+](=O)[O-])c1
inactive: A549 > 100 µM | COLO 205 65 µM | EKVX 66.5 µM | HCT-116 34 µM | HT-29 22.5 µM | K562 26.9 µM | NCI/ADR-RES 36.7 µM | OVCAR-3 55.3 µM | RPMI-8226 39.1 µM | RXF 393 45.4 µM | SF-268 66.7 µM | SF-295 > 100 µM | SK-MEL-2 44.2 µM | SK-MEL-5 27.4 µM | SNB-19 > 100 µM | SR 52.6 µM | SW-620 70.5 µM

COC(=O)[C@@H]1O[C@]12C(CO[Si](C)(C)C(C)(C)C)OC(n1ccc(=O)[nH]c1=O)C2O[Si](C)(C)C(C)(C)C (stereo not given in full)
inactive: A498 > 10 µM | A549 32.7 µM | COLO 205 24.1 µM | EKVX 25.9 µM | HCT-116 23.3 µM | HOP-92 27.4 µM | HT-29 7.93 µM | K562 25.5 µM | NCI/ADR-RES 30.8 µM | OVCAR-3 16.7 µM | RPMI-8226 8.85 µM | SF-268 30.4 µM | SF-295 21.8 µM | SK-MEL-2 17.4 µM | SK-MEL-5 19.6 µM | SNB-19 22.9 µM | SR > 10 µM | SW-620 26.1 µM
